Data reported in patent US20110136229A1, “Novel lectin” (National Taiwan University, priority 2009, published 2011).
Values after ≈ are worked out from the molar mass of the structure shown.

Legend:
lectin of Carica papaya = assay: Analysis of sugar-binding specificity (inhibition of lectin-induced hemagglutination by sugars, IC50); format: cell-based; details: lowest sugar concentration inhibiting 50% agglutinating activity; peak 1 diluted to HA titer 32
Method: The N-acetylgalactosamine, galactose, lactose, mannose, N-acetylglucosamine solutions were respectively added to the same volume of the samples, and the final sugar concentrations of the solutions were 3.1, 6.3, 12.5, 25, 50 and 100 mM, respectively. Upon well mixing, 50 μL of the mixture of the sample and the sugar solution was added to 50 μL of the human type O erythrocyte suspension (2×10^8 cells/mL) in the 96-well plate. Then, the 96-well plate was placed at 37 °C for 30 minutes, and the inhibition of the hemagglutination was observed. IC50 was defined as the lowest sugar concentration capable of inhibiting 50% agglutinating activity, wherein the inhibition area of the agglutination was at least half area of the bottom of the well.
In this embodiment, the fraction of the peak 1 (HA titer being 512) was diluted for 16 folds (HA titer being 32) for the analysis.

CPL = assay: Hemagglutination inhibition assay on CPL by various sugars (MIC); format: cell-based, Carica papaya; details: minimum inhibitory concentration for inhibition of 16 hemagglutination titers, 2% human erythrocytes
Method: The HA titer of the purified lectin in the present invention was 512. The purified lectin was diluted to have the HA titer as 16, and then mixed with various sugar solution to test hemagglutination inhibition on CPL by various sugars. The results were illustrated in Table 3, wherein MIC indicated minimum inhibitory concentrations required for inhibition of 16 hemagglutination titers of the lectin of the present invention against 2% human 0-type erythrocytes, and all sugars are of D configuration.

[1] = tested on: CPL (Carica papaya lectin), purified lectin from papaya seeds; assay: Interaction between CPL and immobilized GalNAc residues by surface plasmon resonance; format: binding; details: GalNAc-PAA-biotin polymers immobilized on SA chip, CPL 1.8-30 nM as analyte, Biacore T100
Method: (3) Interaction Between CPL and Immobilized GalNAc Residues by Surface Plasmon Resonance
GalNAc-PAA-biotin polymers were immobilized to a sensor chip modified with streptavidin (SA). The regeneration solution for the chip was 50 mM phosphate saline buffer (pH 7.0) containing 200 mM GalNAc. The concentrations of the purified CPL were adjusted to 30, 15, 7.5, 3.7 and 1.8 nM to be analytes, then subjected to the sensor chip immobilized with GalNAc-PAA-biotin polymers, and analyzed by Biacore T100 surface plasmon resonance analyzing machine. The obtained sensorgrams were analyzed and calculated by BIACORE T100 Evaluation software 2.0. After CPL was combined with GalNAc ligand on the sensor chip, the dissociation curve declined gradually. In other words, CPL had great affinity to GalNAc. […] (4) Immunomodulatory Effect of CPL on the Cytotoxicity and Induction of Cytokine Production in Jurkat T Lymphocytes

Jurkat T lymphocytes [2] = assay: IL-2 cytokine production in Jurkat T lymphocytes; format: cell-based, human; details: 10 μg/mL, 24 hr
Method: (§1) The purified CPL was added to respective 1.8 mL of Jurkat T lymphocytes (2×10^6), wherein the final concentrations of CPL were 24, 12, 6 and 3 μg/mL, respectively. After incubation for 24 hours, cell viability was measured by cell proliferation reagent, WST-1 (4-[3-(4-iodophenyl)-2-(4-nitrophenyl)-2H-5-tetrazolio]-1,3-benzene disulfonate), and the cytokine content in the incubation medium was analyzed. […] 24 μg/mL of CPL had inhibition effect on Jurkat T lymphocytes similar to that of 10 μg/mL of SBA, i.e., inhibiting 30% of viability after 24-hour incubation.
In the control group of Jurkat T lymphocyte without lectin added therein, the concentration of IL-2 upon 24 hr incubation was approximately or lower than 10 pg/mL. However, upon incubation with lectin, Jurkat T lymphocytes were induced to secrete IL-2 into the culture medium. The concentrations of IL-2 secreted from Jurkat T lymphocytes incubated with SBA and PHA (10 μg/mL) were 377±1 and 308±7 pg/mL, respectively. After Jurkat T lymphocytes were incubated with various concentrations of CPL for 24 hours, the concentration of IL-2 in the medium was proportional to the concentration of CPL. In the medium added with 3 μg/mL of CPL, the concentration of IL-2 was 9.7 pg/mL, which had no significant difference from the control group. In the medium added with 6 μg/mL of CPL, the concentration of IL-2 was 44.5 pg/mL. […]

Jurkat T lymphocytes [3] = format: cell-based, human; details: 1 μg/mL, 24 hours
Method: as §1, with “The purified CPL was added to respective 1.8 mL of Jurkat T lymphocytes (2×10^6), wherein the final concentrations of CPL were 24, 12, 6 and 3 μg/mL, respectively.” left out

Row | Molecule | IC50 (lectin of Carica papaya) | MIC (CPL) | further results
1 | O=C[C@H](O)[C@@H](O)[C@@H](O)[C@H](O)CO [Galactose] | > 100 mM | >100 mM | 
2 | OC[C@H]1O[C@@H](O[C@H]2[C@H](O)[C@@H](O)C(O)O[C@@H]2CO)[C@H](O)[C@@H](O)[C@H]1O (stereo partly shown) [Lactose] | 6.3 mM | 6.3 mM (≈ 2.16 mg/mL) | 
3 | CC(=O)N[C@H]1C(O)O[C@H](CO)[C@H](O)[C@@H]1O (stereo partly shown) [N-acetylgalactosamine] | 6.3 mM | 6.3 mM (≈ 1.39 mg/mL) | combination rate (Kon) [1]: 5.5×10^4 1/MS; dissociation rate (Koff) [1]: 3×10^−4 1/S; Kd ([1]; read-out: dissociation constant (Kd)): ~5.5 nM
4 | CC(=O)N[C@H]1C(O)O[C@H](CO)[C@@H](O)[C@@H]1O (stereo partly shown) [N-acetylglucosamine] | > 100 mM |  | MIC (CPL; listed as GlcNAc): >100 mM
5 | SBA: soybean agglutinin, which specifically binds to GalNAc |  |  | concentration of IL-2 in medium (Jurkat T lymphocytes [2]): 377 ± 1 pg/mL; effect on viability (Jurkat T lymphocytes [3]): no significant effect
